# Measured values as given in PubChem BioAssay (NCI).
#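 Dose response: 5 concentrations. Exposure: 48 h. Format: 96-well plates. Endpoint: linear interpolation; highest concentration if not reached. TGI denotes the concentration required for complete inhibition of growth.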
# What was measured:
# Assay in all cases: growth of human tumour cells (NCI), 48 h
# T-47D breast = system: T-47D breast
# DU-145 prostate = system: DU-145 prostate
# SW-620 colon = system: SW-620 colon
# SF-268 CNS = system: SF-268 CNS
# M14 melanoma = system: M14 melanoma
# HOP-62 NSCLC = system: HOP-62 NSCLC
# RPMI-8226 leukemia = system: RPMI-8226 leukemia
# EKVX NSCLC = system: EKVX NSCLC
# MDA-N = system: MDA-N
# OVCAR-3 ovarian = system: OVCAR-3 ovarian
# OVCAR-5 ovarian = system: OVCAR-5 ovarian
# SK-MEL-28 melanoma = system: SK-MEL-28 melanoma
# SNB-19 CNS = system: SNB-19 CNS
# UACC-257 melanoma = system: UACC-257 melanoma
# NCI-H522 lung = system: NCI-H522 lung
# HCT-116 colon = system: HCT-116 colon
# HS 578T breast = system: HS 578T breast
# TK-10 renal = system: TK-10 renal
# IGROV1 ovarian = system: IGROV1 ovarian
# MOLT-4 leukemia = system: MOLT-4 leukemia
# NCI-H23 lung = system: NCI-H23 lung
# A549 NSCLC = system: A549 NSCLC
# HCT-15 colon = system: HCT-15 colon
# SR leukemia = system: SR leukemia
# NCI/ADR-RES ovarian = system: NCI/ADR-RES ovarian
# MDA-MB-231 breast = system: MDA-MB-231 breast
# U251 CNS = system: U251 CNS
# SK-MEL-5 melanoma = system: SK-MEL-5 melanoma
# HOP-92 NSCLC = system: HOP-92 NSCLC
# NCI-H226 lung = system: NCI-H226 lung
# HT29 colon = system: HT29 colon
# SK-MEL-2 melanoma = system: SK-MEL-2 melanoma
# SK-OV-3 ovarian = system: SK-OV-3 ovarian
# BT-549 breast = system: BT-549 breast
# PC-3 prostate = system: PC-3 prostate
# 786-0 renal = system: 786-0 renal
# UO-31 renal = system: UO-31 renal
# RXF 393 renal = system: RXF 393 renal
# UACC-62 melanoma = system: UACC-62 melanoma
# OVCAR-8 ovarian = system: OVCAR-8 ovarian
# LOX IMVI melanoma = system: LOX IMVI melanoma
# OVCAR-4 ovarian = system: OVCAR-4 ovarian
# SF-295 CNS = system: SF-295 CNS
# MALME-3M melanoma = system: MALME-3M melanoma
# MDA-MB-435 = system: MDA-MB-435
# ACHN renal = system: ACHN renal
# SNB-75 CNS = system: SNB-75 CNS
# SN12C renal = system: SN12C renal
# A498 renal = system: A498 renal
# K-562 leukemia = system: K-562 leukemia
# COLO 205 colon = system: COLO 205 colon
# KM12 colon = system: KM12 colon
# CCRF-CEM leukemia = system: CCRF-CEM leukemia
# CAKI-1 renal = system: CAKI-1 renal
# NCI-H460 lung = system: NCI-H460 lung
# HL-60(TB) leukemia = system: HL-60(TB) leukemia
# HCC-2998 colon = system: HCC-2998 colon
compound,measurement,setting,value
CC(C)(C)/C(O)=C\c1nc2ccc(C(F)(F)F)cc2[nH]c1=O,TGI,T-47D breast,> 100 µM
same,TGI,DU-145 prostate,> 100 µM
same,TGI,SW-620 colon,> 100 µM
same,TGI,SF-268 CNS,> 100 µM
same,TGI,M14 melanoma,> 100 µM
same,TGI,HOP-62 NSCLC,> 100 µM
same,TGI,RPMI-8226 leukemia,> 100 µM
same,TGI,EKVX NSCLC,> 100 µM
same,TGI,MDA-N,> 100 µM
same,TGI,OVCAR-3 ovarian,> 100 µM
same,TGI,OVCAR-5 ovarian,> 100 µM
same,TGI,SK-MEL-28 melanoma,> 100 µM
same,TGI,SNB-19 CNS,> 100 µM
same,TGI,UACC-257 melanoma,> 100 µM
same,TGI,NCI-H522 lung,> 100 µM
same,TGI,HCT-116 colon,> 100 µM
same,TGI,HS 578T breast,> 100 µM
same,TGI,TK-10 renal,> 100 µM
same,TGI,IGROV1 ovarian,> 100 µM
same,TGI,MOLT-4 leukemia,> 100 µM
same,TGI,NCI-H23 lung,> 100 µM
same,TGI,A549 NSCLC,> 100 µM
same,TGI,HCT-15 colon,> 100 µM
same,TGI,SR leukemia,> 100 µM
same,TGI,NCI/ADR-RES ovarian,> 100 µM
same,TGI,MDA-MB-231 breast,> 100 µM
same,TGI,U251 CNS,> 100 µM
same,TGI,SK-MEL-5 melanoma,> 100 µM
same,TGI,HOP-92 NSCLC,> 100 µM
same,TGI,NCI-H226 lung,> 100 µM
same,TGI,HT29 colon,> 100 µM
same,TGI,SK-MEL-2 melanoma,> 100 µM
same,TGI,SK-OV-3 ovarian,> 100 µM
same,TGI,BT-549 breast,> 100 µM
same,TGI,PC-3 prostate,> 100 µM
same,TGI,786-0 renal,> 100 µM
same,TGI,UO-31 renal,> 100 µM
same,TGI,RXF 393 renal,> 100 µM
same,TGI,UACC-62 melanoma,> 100 µM
same,TGI,OVCAR-8 ovarian,> 100 µM
same,TGI,LOX IMVI melanoma,> 100 µM
same,TGI,OVCAR-4 ovarian,> 100 µM
same,TGI,SF-295 CNS,> 100 µM
same,TGI,MALME-3M melanoma,> 100 µM
same,TGI,MDA-MB-435,> 100 µM
same,TGI,ACHN renal,> 100 µM
same,TGI,SNB-75 CNS,> 100 µM
same,TGI,SN12C renal,> 100 µM
same,TGI,A498 renal,> 100 µM
same,TGI,K-562 leukemia,> 100 µM
same,TGI,COLO 205 colon,> 100 µM
same,TGI,KM12 colon,> 100 µM
same,TGI,CCRF-CEM leukemia,> 100 µM
same,TGI,CAKI-1 renal,> 100 µM
c1ccc2c(c1)nnn2CN1CCOCC1,TGI,T-47D breast,> 100 µM
same,TGI,SW-620 colon,> 100 µM
same,TGI,SF-268 CNS,> 100 µM
same,TGI,M14 melanoma,> 100 µM
same,TGI,HOP-62 NSCLC,> 100 µM
same,TGI,EKVX NSCLC,> 100 µM
same,TGI,MDA-N,> 100 µM
same,TGI,OVCAR-3 ovarian,93.1 µM
same,TGI,OVCAR-5 ovarian,> 100 µM
same,TGI,NCI-H460 lung,> 100 µM
same,TGI,SK-MEL-28 melanoma,> 100 µM
same,TGI,SNB-19 CNS,> 100 µM
same,TGI,UACC-257 melanoma,> 100 µM
same,TGI,NCI-H522 lung,> 100 µM
same,TGI,HCT-116 colon,> 100 µM
same,TGI,HS 578T breast,> 100 µM
same,TGI,TK-10 renal,> 100 µM
same,TGI,IGROV1 ovarian,> 100 µM
same,TGI,MOLT-4 leukemia,> 100 µM
same,TGI,NCI-H23 lung,> 100 µM
same,TGI,A549 NSCLC,> 100 µM
same,TGI,HCT-15 colon,> 100 µM
same,TGI,SR leukemia,54.8 µM
same,TGI,NCI/ADR-RES ovarian,> 100 µM
same,TGI,MDA-MB-231 breast,> 100 µM
same,TGI,U251 CNS,> 100 µM
same,TGI,SK-MEL-5 melanoma,> 100 µM
same,TGI,HOP-92 NSCLC,> 100 µM
same,TGI,NCI-H226 lung,> 100 µM
same,TGI,HT29 colon,> 100 µM
same,TGI,SK-MEL-2 melanoma,> 100 µM
same,TGI,BT-549 breast,> 100 µM
same,TGI,PC-3 prostate,> 100 µM
same,TGI,786-0 renal,> 100 µM
same,TGI,UO-31 renal,> 100 µM
same,TGI,RXF 393 renal,> 100 µM
same,TGI,UACC-62 melanoma,> 100 µM
same,TGI,OVCAR-8 ovarian,> 100 µM
same,TGI,LOX IMVI melanoma,> 100 µM
same,TGI,OVCAR-4 ovarian,> 100 µM
same,TGI,SF-295 CNS,> 100 µM
same,TGI,MALME-3M melanoma,> 100 µM
same,TGI,MDA-MB-435,> 100 µM
same,TGI,ACHN renal,> 100 µM
same,TGI,SN12C renal,> 100 µM
same,TGI,A498 renal,> 100 µM
same,TGI,K-562 leukemia,> 100 µM
same,TGI,HL-60(TB) leukemia,63.6 µM
same,TGI,KM12 colon,> 100 µM
same,TGI,CAKI-1 renal,> 100 µM
Cc1cc(OCC(=O)O)c(Cl)cc1Cl,TGI,T-47D breast,> 100 µM
same,TGI,HCC-2998 colon,> 100 µM
same,TGI,DU-145 prostate,> 100 µM
same,TGI,SW-620 colon,> 100 µM
same,TGI,SF-268 CNS,> 100 µM
same,TGI,M14 melanoma,> 100 µM
same,TGI,HOP-62 NSCLC,> 100 µM
same,TGI,RPMI-8226 leukemia,> 100 µM
same,TGI,EKVX NSCLC,> 100 µM
same,TGI,MDA-N,> 100 µM
same,TGI,OVCAR-3 ovarian,> 100 µM
same,TGI,OVCAR-5 ovarian,> 100 µM
same,TGI,NCI-H460 lung,> 100 µM
same,TGI,SK-MEL-28 melanoma,> 100 µM
same,TGI,SNB-19 CNS,> 100 µM
same,TGI,UACC-257 melanoma,> 100 µM
same,TGI,NCI-H522 lung,> 100 µM
same,TGI,HCT-116 colon,> 100 µM
same,TGI,HS 578T breast,> 100 µM
same,TGI,TK-10 renal,> 100 µM
same,TGI,IGROV1 ovarian,> 100 µM
same,TGI,MOLT-4 leukemia,> 100 µM
same,TGI,NCI-H23 lung,> 100 µM
same,TGI,A549 NSCLC,> 100 µM
same,TGI,HCT-15 colon,> 100 µM
same,TGI,SR leukemia,> 100 µM
same,TGI,NCI/ADR-RES ovarian,> 100 µM
same,TGI,MDA-MB-231 breast,> 100 µM
same,TGI,U251 CNS,> 100 µM
same,TGI,SK-MEL-5 melanoma,> 100 µM
same,TGI,HOP-92 NSCLC,> 100 µM
same,TGI,NCI-H226 lung,> 100 µM
same,TGI,HT29 colon,> 100 µM
same,TGI,SK-MEL-2 melanoma,> 100 µM
same,TGI,BT-549 breast,> 100 µM
same,TGI,PC-3 prostate,> 100 µM
same,TGI,786-0 renal,> 100 µM
same,TGI,UO-31 renal,> 100 µM
same,TGI,RXF 393 renal,> 100 µM
same,TGI,UACC-62 melanoma,> 100 µM
same,TGI,OVCAR-8 ovarian,> 100 µM
same,TGI,LOX IMVI melanoma,> 100 µM
same,TGI,OVCAR-4 ovarian,> 100 µM
same,TGI,SF-295 CNS,> 100 µM
same,TGI,MALME-3M melanoma,> 100 µM
same,TGI,MDA-MB-435,> 100 µM
same,TGI,ACHN renal,> 100 µM
same,TGI,SN12C renal,> 100 µM
same,TGI,A498 renal,> 100 µM
same,TGI,K-562 leukemia,> 100 µM
same,TGI,HL-60(TB) leukemia,> 100 µM
same,TGI,KM12 colon,> 100 µM
same,TGI,CAKI-1 renal,> 100 µM
